Test results as given in US7507806B2, “Nucleic acid sequences of human Rif1” (The Rockefeller University, priority 2004, dated 2009).

Assays:
Assay type in all cases: cell-based, human
53BP1 foci = 53BP1 foci by indirect immunofluorescence after IR or UV; details: aphidicolin after the UV irradiation
Protocol: (§1) For IR treatment, cells were exposed to gamma(λ)-irradiation using a Cs^137 source at a rate of 7.7 Gray/min in 6 cm dishes. For UV radiation, cells were washed with PBS and exposed to 25 J/m^2 UV (265 nm) radiation in a Stratalinker (Stratagene) without a lid. After UV radiation, cells were incubated in media until harvest. For immunoblotting as described in FIG. 2B, cells were harvested 1 hr post-UV. MMS and etoposide (0.01% w/v and 50 μg/ml, respectively) were added to the media and cells were incubated for 1 hr before harvesting.
(§2) To stain cells for immunofluorescence, tissue culture cells plated on dishes with coverslips were washed twice with PBS, fixed with 2% paraformaldehyde in PBS (stored at −20° C.) for 10 minutes at room temperature (RT), washed twice with PBS and permeabilized with 0.5% NP-40 in PBS for 10 minutes at RT and washed three times with PBS. Cells were processed immediately or stored at 4° C. wrapped in PBS with sodium azide. […]

Rif1 foci [1] = test: UV-induced Rif1 foci by indirect immunofluorescence; details: aphidicolin after the UV irradiation
Protocol: as §1, §2

Rif1 foci [2] = test: Rif1 foci after drug treatment, immunofluorescence; details: MMS 0.01% w/v, etoposide 50 μg/ml, 1 hr; hydroxyurea prolonged incubation
Protocol: as §1
To stain cells for immunofluorescence, tissue culture cells plated on dishes with coverslips were washed twice with PBS, fixed with 2% paraformaldehyde in PBS (stored at −20° C.) for 10 minutes at room temperature (RT), washed twice with PBS and permeabilized with 0.5% NP-40 in PBS for 10 minutes at RT and washed three times with PBS. Cells were processed immediately or stored at 4° C. wrapped in PBS with sodium azide. Coverslips were placed on parafilm in a humidified tray and blocked with PBG (0.2% (w/v) cold water fish gelatin (Sigma), 0.5% (w/v) BSA (Sigma) in PBS (stored at −20° C.) for 30 minutes at RT. Cells were then incubated with primary antibody diluted in PBG for 3 hours at RT, washed three times with PBG for 5 minutes at RT, incubated with secondary antibody diluted 1:100 in PBG for 40 minutes at RT, washed three times with PBG for 5 minutes at RT (with the last wash containing DAPI ([…]). Coverslips were then washed twice with PBS and mounted on glass slides in mounting media and sealed with nail polish.

SMILES | 53BP1 foci after UV (53BP1 foci) | Rif1 foci after UV (Rif1 foci [1]) | Rif1 foci formation after treatment (Rif1 foci [2])
C[C@@]1(CO)[C@H](O)CC[C@@]2(C)[C@H]1CC[C@H]1C[C@@H]3C[C@@]12CC[C@]3(O)CO [Aphidicolin] | still detectable | fail to form Rif1 foci after UV | –
COS(C)(=O)=O [MMS] | – | – | forms foci
COc1cc([C@@H]2c3cc4c(cc3[C@@H](O[C@@H]3O[C@@H]5CO[C@@H](C)O[C@H]5[C@H](O)[C@H]3O)[C@H]3COC(=O)[C@H]23)OCO4)cc(OC)c1O [etoposide] | – | – | forms foci
NC(=O)NO [hydroxyurea] | – | – | forms foci
